This note sets out measurements from the SangsterLogP compilation.

A short description of the series: from Suikov, S.; Kal'nits'kii, M.; Lutsik, O.; Plyushchakova, L.; Bondarenko, A.; Bogza, S.; Popov, A. (2007). Derivatives of 1,2,4-triazolo[4,3-b]pyridazin-6-ylhydrazine as a new training set for ….
For the molecule `CC/C(=N/Nc1ccc2nncn2n1)c1ccccc1`, the lipophilicity (logP) came out at 2.15.

As for `CC(=NN=c1ccc2nncn2[nH]1)c1ccc(O)cc1`, the logP amounted to 1.45.

`CC(=NN=c1ccc2nncn2[nH]1)c1cccc(O)c1` returned a logP of 1.46.

In the case of `CC(=NN=c1ccc2nncn2[nH]1)c1ccc(F)cc1`, the log partition coefficient (logP) amounted to 2.02.

Consider `COc1cc(C=NN=c2ccc3nncn3[nH]2)cc(OC)c1OC`, for which the logP came out at 1.53.

`CC(=NN=c1ccc2nncn2[nH]1)c1ccncc1`: the lipophilicity (logP) was found to be 0.93.

Molecule `CC(=NN=c1ccc2nncn2[nH]1)c1ccc(C)cc1` had a log partition coefficient (logP) of 2.2.

`CC(=NN=c1ccc2nncn2[nH]1)c1ccccc1O` gave a lipophilicity (logP) of 1.89.

Molecule `COc1ccccc1C(C)=NN=c1ccc2nncn2[nH]1` showed a logP of 1.94.

Molecule `CC(=NN=c1ccc2nncn2[nH]1)c1ccccn1` displayed a logP of 1.15.

Consider `COc1cccc(C(C)=NN=c2ccc3nncn3[nH]2)c1`, for which the lipophilicity (logP) is 1.97.
